From ChEMBL document CHEMBL4715755, “Isothiouronium modification empowers pyrimidine-substituted curcumin analogs potent cytotoxicity and Golgi localization” (Eur J Med Chem, 2016) come the findings set out here.

One data set concerns HT-29. The experiment in a line: Cytotoxicity against human HT-29 cells assessed as reduction in cell viability incubated for 48 hrs by resazurin reagent based fluorescence assay. The format is functional. The following applies: HT-29, 48 h. A general note: The colour change of resazurin is a common sign of viable cells or microbes.
A further data set has as its system HCT-116. The experiment in a line: Cytotoxicity against human HCT-116 cells assessed as reduction in cell viability incubated for 48 hrs by resazurin reagent based fluorescence assay. The format is functional. The following applies: HCT-116, 48 h.
The subject of a further data set is NCI-H1299. The experiment in a line: Cytotoxicity against human NCI-H1299 cells assessed as reduction in cell viability incubated for 48 hrs by resazurin reagent based fluorescence assay. It is filed as functional. The conditions noted are these: NCI-H1299, 48 h.
Data set [1] deals with A549. The experiment in a line: Cytotoxicity against human A549 cells assessed as reduction in cell viability incubated for 48 hrs by resazurin reagent based fluorescence assay. The format is functional. The following applies: A549, 48 h.
Data set [2] can be described thus: Drug localization in golgi bodies of human HCT-116 cells at 10 uM measured upto 12 hrs by Golgin-97 and DAPI staining based laser scanning confocal microscopic analysis. The format is ADME, subcellular, Golgi body. The conditions noted are these: hct-116, 12 h.
Data set [3] can be described thus: Drug localization in golgi bodies of human A549 cells at 10 uM measured upto 12 hrs by Golgin-97 and DAPI staining based laser scanning confocal microscopic analysis. It is filed as ADME, subcellular, Golgi body. The conditions noted are these: a549, 12 h.
The next data set has as its system CHO-K1. The experiment in a line: Cytotoxicity against CHO-K1 cells assessed as reduction in cell viability at 10 uM incubated for 48 hrs by resazurin reagent based fluorescence assay. Set-up: species or system Cricetulus griseus. The following applies: chinese hamster, cho-k1, 48 h.
Data set [4] in a line: Cytotoxicity against GAG-deficient CHO-745 cells assessed as reduction in cell viability at 10 uM incubated for 48 hrs by resazurin reagent based fluorescence assay. Further details: species or system Cricetulus griseus. The conditions noted are these: chinese hamster, cho-745, 48 h.
A short description of data set [5]: Cytotoxicity against heparan sulfate-deficient CHO-677 cells assessed as reduction in cell viability at 10 uM incubated for 48 hrs by resazurin reagent based fluorescence assay. Set-up: species or system Cricetulus griseus. The following applies: chinese hamster, cho-677, 48 h.
Data set [6] concerns CHO. The experiment in a line: Cytotoxicity against CHO cells overexpressing 3-O-sulfotransferase 1 assessed as reduction in cell viability at 10 uM incubated for 48 hrs by resazurin reagent based fluorescence assay. Further details: species or system Cricetulus griseus. The conditions noted are these: chinese hamster.
The subject of data set [7] is CHO. The experiment in a line: Cytotoxicity against CHO cells overexpressing 3-O-sulfotransferase 2 assessed as reduction in cell viability at 10 uM incubated for 48 hrs by resazurin reagent based fluorescence assay. Set-up: species or system Cricetulus griseus. The following applies: chinese hamster.
For data set [8], the system named is CHO. The experiment in a line: Cytotoxicity against CHO cells overexpressing 3-O-sulfotransferase 3 assessed as reduction in cell viability at 10 uM incubated for 48 hrs by resazurin reagent based fluorescence assay. The following applies: chinese hamster. Further details: species or system Cricetulus griseus.
For data set [9], the system named is CHO. The experiment in a line: Cytotoxicity against CHO cells overexpressing 3-O-sulfotransferase 4 assessed as reduction in cell viability at 10 uM incubated for 48 hrs by resazurin reagent based fluorescence assay. Further details: species or system Cricetulus griseus. The following applies: chinese hamster.
The subject of data set [10] is A549. The experiment in a line: Cytotoxicity against human A549 cells assessed as reduction in cell viability at 10 uM incubated for 48 hrs by resazurin reagent based fluorescence assay. The format is functional.
Data set [11] is described as follows: Drug localization in golgi bodies of human A549 cells at 10 uM incubated for 4 hrs by Golgin-97 and DAPI staining based laser scanning confocal microscopic analysis. The format is ADME, subcellular, Golgi body. The following applies: a549, 4 h.
The nature of data set [12]: Drug localization in cytoplasm of human HCT-116 cells at 10 uM measured upto 12 hrs by Golgin-97 and DAPI staining based laser scanning confocal microscopic analysis. It is filed as ADME, subcellular. The following applies: hct-116, 12 h.
Data set [13] is described as follows: Drug localization in cytoplasm of human A549 cells at 10 uM measured upto 12 hrs by Golgin-97 and DAPI staining based laser scanning confocal microscopic analysis. The format is ADME, subcellular. The conditions noted are these: a549, 12 h.
A short description of data set [14]: Drug localization in cytoplasm of human A549 cells at 10 uM incubated for 4 hrs by Golgin-97 and DAPI staining based laser scanning confocal microscopic analysis. The format is ADME, subcellular. The conditions noted are these: a549, 4 h.

Calls of active or inactive are those of the source. The rule behind the calls is not given here.

Usually IC50 stands for the concentration that inhibits the measured activity by half. Regarding `Br.COc1ccc(/C=C/c2cc(/C=C/c3ccc(OC)cc3)nc(OCCCCSC(=N)N)n2)cc1`, the IC50 amounted to 790 nM in the data set with HT-29, 1000 nM in the data set with HCT-116, 920 nM with NCI-H1299 and 990 nM with A549 [1]. The Drug uptake result in [2], in data set [3] and in data set [11] was “Active” each time. In addition, the Activity entry (in the data set with CHO-K1; in data set [4]; in data set [5]; in the data set on CHO [6]; in the data set on CHO [7]; in the data set with CHO [8]) was “Toxic” each time. In addition, the Activity entry in the data set on CHO [9] was “Toxic”. In the data set on A549 [10], the result was Active.

Take `COc1ccc(/C=C/c2cc(/C=C/c3ccc(OC)cc3)nc(OCCCCBr)n2)cc1`: the IC50 in the data set on HT-29, in the data set with HCT-116, in the data set with NCI-H1299 and in the data set on A549 [1] was over 20000 nM throughout. Besides, the Drug uptake result in [12], in data set [13] and in [14] was “Active” each time. Moreover, the Activity entry (in the data set with CHO-K1; in data set [4]; in data set [5]; in the data set with CHO [6]; with CHO [7]; in the data set with CHO [8]) was “Non-Toxic” throughout. Also, the Activity entry in the data set on CHO [9] is given as “Non-Toxic”. Moreover, the outcome in the data set on A549 [10] was inactive.
